Assay results taken from publication PMC11791039, “A split intein and split luciferase-coupled system for detecting protein-protein interactions” (Molecular Systems Biology, 2024).
Where “and” joins values, the source holds several entries; their conditions need not be identical. Equal values may be shown once. Read-outs that look alike come from different tables or passages of the source. One block for each compound: values may come before it.

Columns and labels:
[1] = molecular target: T1, EGFR(L858R)/SHC1 (Homo sapiens, UniProt P00533, L858R); assay: SIMPL2 assay EGFR(L858R)/SHC1; format: cell-based; conditions: replicates 1-4
T1 construct: β10-IN (tNLuc β10 peptide + GP41-1 split intein N fragment) (C); V5; expressed in transfected cells

[2] = molecular target: T2, control (Homo sapiens, UniProt P01116, G12C); assay: SIMPL2 assay, control of Fig. 3B-D; format: cell-based; conditions: replicates 1-4
T2 construct: IC-β9 (GP41-1 split intein C fragment + tNLuc β9 peptide) (N); FLAG; expressed in transfected cells
T2 sequence (P01116 1-185 isoform P01116-2 G12C limits assumed): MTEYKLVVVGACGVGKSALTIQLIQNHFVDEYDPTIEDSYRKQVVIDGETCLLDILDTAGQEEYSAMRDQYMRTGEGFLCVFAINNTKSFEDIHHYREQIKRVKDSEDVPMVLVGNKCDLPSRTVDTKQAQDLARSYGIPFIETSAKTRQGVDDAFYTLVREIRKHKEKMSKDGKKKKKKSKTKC

[3] = molecular target: T3, EGFR(WT)/SHC1 (Homo sapiens, UniProt P00533); assay: Western blot of EGFR(WT)-SHC1 splicing; format: cell-based; conditions: inhibitor 100 nM, 16 h
T3 construct: β10-IN (tNLuc β10 peptide + GP41-1 split intein N fragment) (C); V5; expressed in transfected cells

[4] = molecular target: T1, EGFR(L858R)/SHC1; assay: Western blot of EGFR(L858R)-SHC1 splicing; format: cell-based; conditions: inhibitor 100 nM, 16 h
[5] = molecular target: T3, EGFR(WT)/SHC1; assay: SIMPL2 assay EGFR(WT)/SHC1; format: cell-based; conditions: replicates 1-4;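 also: 0% is no doxycycline or compound and 100% is doxycycline without compound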
[6] = molecular target: T4, FRB/FKBP1A interaction (Homo sapiens, UniProt P42345+P62942); assay: SIMPL2 assay, rapamycin-mediated FRB/FKBP1A interaction; conditions: for SIMPL2 signal (Fig. EV1B): IN/IC format, replicates 1-4; for SIMPL2(%) (Fig. EV1C): NIN/IC format, replicates 1-3; for SIMPL2 signal (Fig. 1D source data): 2 h, expt 1-4
T4 sequence (P42345 2012-2144 limits assumed): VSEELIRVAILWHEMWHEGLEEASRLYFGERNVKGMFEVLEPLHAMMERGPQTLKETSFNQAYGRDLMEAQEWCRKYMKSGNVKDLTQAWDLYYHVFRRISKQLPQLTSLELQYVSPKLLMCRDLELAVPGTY
T4 sequence (P62942 whole entry): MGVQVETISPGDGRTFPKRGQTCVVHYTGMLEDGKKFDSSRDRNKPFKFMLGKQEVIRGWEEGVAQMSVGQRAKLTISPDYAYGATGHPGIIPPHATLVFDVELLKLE

[7] = molecular target: T4, FRB/FKBP1A interaction; set-up: method as in previous study; conditions: replicates 1-4, ref previous study, cited from earlier work; for ELISA signal (Fig. EV1B): IN/IC format; for ELISA_CIC signal (Fig. EV1C): NIN/IC format
[8] = molecular target: T4, FRB/FKBP1A interaction; assay: NanoBiT assay, rapamycin-mediated FRB/FKBP1A interaction; format: cell-based; conditions: 2 h, expt 1-4

SMILES: COc1cc2ncnc(Nc3cccc(Cl)c3)c2cc1OC [AG1478]
SIMPL2 signal, L858R (Fig. 3B) ([1]; AG1478 6.4e-6 uM): 91.6588 and 97.6255 and 114.285 and 112.912
SIMPL2 signal, L858R (Fig. 3B) ([1]; AG1478 3.2e-5 uM): 89.0187 and 76.3196 and 106.708 and 96.4903
SIMPL2 signal, L858R (Fig. 3B) ([1]; AG1478 0.00016 uM): 80.0422 and 76.3461 and 104.596 and 91.474
SIMPL2 signal, L858R (Fig. 3B) ([1]; AG1478 0.0008 uM): 78.2733 and 74.7356 and 79.963 and 75.2372
SIMPL2 signal, L858R (Fig. 3B) ([1]; AG1478 0.004 uM): 44.1628 and 44.3476 and 45.9581 and 41.1531
SIMPL2 signal, L858R (Fig. 3B) ([1]; AG1478 0.02 uM): 13.9069 and 29.2725 and 26.9756 and 25.1011
SIMPL2 signal, L858R (Fig. 3B) ([1]; AG1478 0.1 uM): 16.4414 and 17.2863 and 10.8707 and 9.471
SIMPL2 signal, L858R (Fig. 3B) ([1]; AG1478 0.5 uM): 3.505 and 4.482 and 4.93 and 3.98
SIMPL2 signal, control (Fig. 3B) ([2]; AG1478 6.4e-6 uM): 78.4402 and 101.308 and 94.2905 and 84.6604
SIMPL2 signal, control (Fig. 3B) ([2]; AG1478 3.2e-5 uM): 100.905 and 96.8875 and 97.961 and 100.282
SIMPL2 signal, control (Fig. 3B) ([2]; AG1478 0.00016 uM): 91.8672 and 101.363 and 100.305 and 106.707
SIMPL2 signal, control (Fig. 3B) ([2]; AG1478 0.0008 uM): 94.4089 and 99.0424 and 101.553 and 109.943
SIMPL2 signal, control (Fig. 3B) ([2]; AG1478 0.004 uM): 91.5435 and 102.468 and 100.85 and 97.0453
SIMPL2 signal, control (Fig. 3B) ([2]; AG1478 0.02 uM): 77.4062 and 87.6599 and 89.9806 (2×)
SIMPL2 signal, control (Fig. 3B) ([2]; AG1478 0.1 uM): 82.8606 and 100.092 and 105.918 and 87.8651
SIMPL2 signal, control (Fig. 3B) ([2]; AG1478 0.5 uM): 102.547 and 94.4247 and 100.724 and 111.159
splicing between EGFR(WT) and SHC1 (western blot) [3]: reduced or abolished
splicing between EGFR(L858R) and SHC1 (western blot) [4]: reduced or abolished
SIMPL2 signal, WT (Fig. 3B) ([5]; AG1478 6.4e-6 uM): 102.427 and 84.7059 and 104.371 and 106.871
SIMPL2 signal, WT (Fig. 3B) ([5]; AG1478 3.2e-5 uM): 77.5953 and 99.0938 and 89.9278 and 95.7607
SIMPL2 signal, WT (Fig. 3B) ([5]; AG1478 0.00016 uM): 73.3734 and 100.927 and 94.8163 and 93.2609
SIMPL2 signal, WT (Fig. 3B) ([5]; AG1478 0.0008 uM): 88.6501 and 85.7058 and 98.1494 and 104.871
SIMPL2 signal, WT (Fig. 3B) ([5]; AG1478 0.004 uM): 74.54 and 81.3728 and 67.2627 and 74.6511
SIMPL2 signal, WT (Fig. 3B) ([5]; AG1478 0.02 uM): 70.0958 and 71.7624 and 65.6517 and 61.8742
SIMPL2 signal, WT (Fig. 3B) ([5]; AG1478 0.1 uM): 65.485 and 59.9854 and 59.7632 and 57.8189
SIMPL2 signal, WT (Fig. 3B) ([5]; AG1478 0.5 uM): 29.8764 and 30.6541 and 19.6549 and 21.0437

SIMPL2 signal (Fig. EV1B) ([6]; Rapa 0.0508 nM): 1.191 and 2.558 and 1.039 and 2.309
SIMPL2 signal (Fig. EV1B) ([6]; Rapa 0.152 nM): 2.258 and 4.019 and 1.902 and 3.528
SIMPL2 signal (Fig. EV1B) ([6]; Rapa 0.457 nM): 5.806 and 9.209 and 5.031 and 7.8055
SIMPL2(%) (Fig. EV1C) ([6]; Rapa 0.00188 nM): 0.8086% (2×) and 0.8386%
SIMPL2(%) (Fig. EV1C) ([6]; Rapa 0.00565 nM): 0.599% and 0.6888% and 0.7487%
SIMPL2(%) (Fig. EV1C) ([6]; Rapa 0.0508 nM): 0.9284% and 1.198% and 0.7188%
SIMPL2(%) (Fig. EV1C) ([6]; Rapa 0.152 nM): 1.108% and 1.6472% and 0.8685%
SIMPL2(%) (Fig. EV1C) ([6]; Rapa 0.457 nM): 4.972% and 3.534% and 2.636%
SIMPL2(%) (Fig. EV1C) ([6]; Rapa 1.372 nM): 23.3303% and 15.2441% and 11.9197%
SIMPL2(%) (Fig. EV1C) ([6]; Rapa 4.115 nM): 44.1749% and 37.1968% and 29.3801%
SIMPL2(%) (Fig. EV1C) ([6]; Rapa 37.037 nM): 91.9736% and 88.0503% and 89.0686%
SIMPL2(%) (Fig. EV1C) ([6]; Rapa 111.111 nM): 100.449% and 91.6442% and 102.935%
SIMPL2(%) (Fig. EV1C) ([6]; Rapa 333.333 nM): 113.267% and 99.5508% and 95.867%
SIMPL2(%) (Fig. EV1C) ([6]; Rapa 1000 nM): 95.5076% and 93.0518% and 96.2564%
SMILES: CO[C@H]1C[C@@H]2CC[C@@H](C)[C@@](O)(O2)C(=O)C(=O)N2CCCC[C@H]2C(=O)O[C@H]([C@H](C)C[C@@H]2CC[C@@H](O)[C@H](OC)C2)CC(=O)[C@H](C)/C=C(\C)[C@@H](O)[C@@H](OC)C(=O)[C@H](C)C[C@H](C)/C=C/C=C/C=C/1C [rapamycin, Rapamycin]
SIMPL2 signal (Fig. EV1B) ([6]; Rapa 1.372 nM): 16.8705 and 22.7506 and 15.2406 and 19.2387
SIMPL2 signal (Fig. EV1B) ([6]; Rapa 4.115 nM): 40.6804 and 51.3157 and 39.8638 and 45.1426
SIMPL2 signal (Fig. EV1B) ([6]; Rapa 37.037 nM): 89.8203 and 93.2241 and 91.2356 and 88.6383
SIMPL2 signal (Fig. EV1B) ([6]; Rapa 111.111 nM): 100.397 and 91.658 and 100.471 and 94.6121
SIMPL2 signal (Fig. EV1B) ([6]; Rapa 333.333 nM): 99.7113 and 97.9264 and 105.182 and 96.7419
SIMPL2 signal (Fig. EV1B) ([6]; Rapa 1000 nM): 92.6509 and 96.5256 and 102.635 and 100.443
SIMPL2 signal (Fig. 1D source data) ([6]; Rapa 0.004115 uM): 47.8958 and 45.8282 and 46.7693 and 41.1245
SIMPL2 signal (Fig. 1D source data) ([6]; Rapa 0.037037 uM): 84.8088 and 98.4637 and 120.48 and 94.9462
SIMPL2 signal (Fig. 1D source data) ([6]; Rapa 0.111111 uM): 73.556 and 88.7889 and 90.3886 and 92.8218
SIMPL2 signal (Fig. 1D source data) ([6]; Rapa 0.333333 uM): 97.7898 and 102.816 and 106.133 and 97.0409
SIMPL2 signal (Fig. 1D source data) ([6]; Rapa 1 uM): 104.171 and 101.443 and 85.3933 and 107.112
ELISA signal (Fig. EV1B) ([7]; Rapa 0.316 nM): 14.411 and 5.166 and 5.566 and 4.9879
ELISA signal (Fig. EV1B) ([7]; Rapa 1 nM): 5.323 and 5.028 and 5.963 and 6.1023
ELISA signal (Fig. EV1B) ([7]; Rapa 3.162 nM): 8.457 and 7.647 and 8.056 and 8.736
ELISA signal (Fig. EV1B) ([7]; Rapa 10 nM): 15.9974 and 15.1146 and 16.574 and 16.0467
ELISA signal (Fig. EV1B) ([7]; Rapa 31.623 nM): 37.8238 and 37.9493 and 40.1437 and 41.1072
ELISA signal (Fig. EV1B) ([7]; Rapa 100 nM): 80.3098 and 67.0371 and 79.2492 and 77.5358
ELISA signal (Fig. EV1B) ([7]; Rapa 316.228 nM): 106.072 and 95.5962 and 92.0797 and 90.9967
ELISA signal (Fig. EV1B) ([7]; Rapa 1000 nM): 102.194 and 105.027 and 90.2049 and 93.6363
ELISA_CIC signal (Fig. EV1C) ([7]; Rapa 0.3 nM): 3.444 and 2.886 and 2.936 and 2.873
ELISA_CIC signal (Fig. EV1C) ([7]; Rapa 1 nM): 3.091 and 2.372 and 3.062 and 3.035
ELISA_CIC signal (Fig. EV1C) ([7]; Rapa 3 nM): 3.502 and 3.836 and 3.666 and 4.333
ELISA_CIC signal (Fig. EV1C) ([7]; Rapa 10 nM): 6.943 and 6.073 and 6.559 and 6.143
ELISA_CIC signal (Fig. EV1C) ([7]; Rapa 30 nM): 20.4969 and 16.4946 and 19.9923 and 21.7284
ELISA_CIC signal (Fig. EV1C) ([7]; Rapa 100 nM): 72.9918 and 58.0659 and 78.6932 and 64.2948
ELISA_CIC signal (Fig. EV1C) ([7]; Rapa 300 nM): 105.102 and 112.879 and 88.9461
ELISA_CIC signal (Fig. EV1C) ([7]; Rapa 1000 nM): 95.1776 and 93.559 and 93.0646 and 80.9326
NanoBiT signal (Fig. 1D source data) ([8]; Rapa 0.004115 uM): 43.0075 and 49.8338 and 39.8143 and 26.5473
NanoBiT signal (Fig. 1D source data) ([8]; Rapa 0.037037 uM): 98.7034 and 104.835 and 107.555 and 86.8025
NanoBiT signal (Fig. 1D source data) ([8]; Rapa 0.111111 uM): 98.0138 and 85.7365 and 105.867 and 81.894
NanoBiT signal (Fig. 1D source data) ([8]; Rapa 0.333333 uM): 102.818 and 83.4071 and 80.4272 and 114.561
NanoBiT signal (Fig. 1D source data) ([8]; Rapa 1 uM): 95.0191 and 104.766 and 93.7327 and 91.3484
